From ChEMBL document CHEMBL1150759, “[Cytotoxic and antibacterial substances from the ascidian Aplidium antillense]” (J Nat Prod, 1988) come the findings set out here.

Experiment [1] has as its system Staphylococcus aureus. Briefly: Antimicrobial activity against methicillin-sensitive Staphylococcus aureus. Format: functional.
Experiment [2] has as its system Staphylococcus aureus. Description: Antimicrobial activity against methicillin-resistant Staphylococcus aureus. Type of experiment: functional.
Experiment [3] has as its system KB. Briefly: Cytotoxicity against human KB cells. Type of experiment: functional, cell-based.
The subject of experiment [4] is Serratia marcescens. Briefly: Antimicrobial activity against Serratia marcescens. Format: functional.
In experiment [5] the test system is P388. Briefly: Cytotoxicity against mouse P388 cells. Format: functional, cell-based.
The test system of experiment [6] is Escherichia coli. Briefly: Antimicrobial activity against Escherichia coli. Format: functional.
In experiment [7] the test system is Morganella morganii. Description: Antimicrobial activity against Morganella morganii. Type of experiment: functional.
The test system of experiment [8] is Proteus mirabilis. Description: Antimicrobial activity against Proteus mirabilis. Type of experiment: functional.
Experiment [9] has as its system Enterococcus faecalis. Description: Antimicrobial activity against Streptococcus faecalis. Type of experiment: functional.
Experiment [10] deals with Klebsiella pneumoniae. Briefly: Antimicrobial activity against Klebsiella pneumoniae. Format: functional.
In experiment [11] the test system is Pseudomonas aeruginosa. Description: Antimicrobial activity against Pseudomonas aeruginosa. Format: functional.

In brackets after ≈: the same amount, converted by molar mass.

As a reminder, the MIC is the smallest concentration in the dilution series that meets the test's criterion for growth inhibition. Lower therefore signals greater potency. Broadly, the IC50 is the concentration needed to halve the response being measured. Read a high IC50 as weaker potency. `CC(C)=CCCC1(C)C=Cc2cc(O)ccc2O1` (stereo not drawn) [CORDIACHROMENE A]: the results for the MBC/MIC ratio in experiment [1], in [2] and in [9] were 2, 2 and 1, respectively. The MIC in experiment [1] was 64 µg/mL (≈ 262 µM); in experiment [2] it was 64 µg/mL (≈ 262 µM); in [4] it was more than 256 µg/mL; in [6], more than 256 µg/mL; in experiment [7] it was more than 256 µg/mL; in experiment [8], more than 256 µg/mL. In addition, the MIC in experiment [9] is 64 µg/mL (≈ 262 µM); in [10] it was more than 256 µg/mL; in experiment [11] it was more than 256 µg/mL. The IC50 worked out at 36 µg/mL (≈ 147 µM) in experiment [3] and 0.5 µg/mL (≈ 2.05 µM) in experiment [5].

Regarding `CC(C)=CCC/C(C)=C/Cc1cc(O)ccc1O` [GEROQUINOL], the figures for the MBC/MIC ratio in experiment [1], in [2] and in [9] were 2, 2 and 1, respectively. The MIC in experiment [1] is 64 µg/mL (≈ 260 µM); in [2], 64 µg/mL (≈ 260 µM); in experiment [4], 128 µg/mL (≈ 520 µM); in experiment [6] it was more than 256 µg/mL; in experiment [7] it was more than 256 µg/mL; in experiment [8], more than 256 µg/mL. Further, the MIC in [9] was 64 µg/mL (≈ 260 µM); in [10], more than 256 µg/mL; in [11], more than 256 µg/mL. Besides, the IC50 came to 4.3 µg/mL (≈ 17.5 µM) in experiment [3] and 0.034 µg/mL (≈ 0.138 µM) in [5].
